ChEMBL document CHEMBL3865802, “Natural product-inspired rational design, synthesis and biological evaluation of 2,3-dihydropyrano[2,3-f]chromen-4(8H)-one based hybrids as potential mitochondrial apoptosis inducers” (Eur J Med Chem, 2016)
Calls of active or inactive are those of the source. The rule behind the calls is not given here.

Tests used:
[1] = Cytotoxicity against human MCF7 cells assessed as cell growth inhibition after 24 hrs by MTT assay; assay type: functional, cell-based; conditions: MCF7, 24 h
[2] = Cytotoxicity against human HeLa cells assessed as cell growth inhibition after 24 hrs by MTT assay; assay type: functional, cell-based
[3] = Cytotoxicity against human A549 cells assessed as cell growth inhibition after 24 hrs by MTT assay; assay type: functional, cell-based; conditions: A549, 24 h
MCF7 [4] = assay: Induction of apoptosis in human MCF7 cells assessed as chromatin condensation at antiproliferative IC50 after 24 hrs by hoechst 33258 staining-based fluorescent microscopic analysis; assay type: functional, cell-based
MCF7 [5] = assay: Induction of apoptosis in human MCF7 cells assessed as cytoskeleton breakdown at antiproliferative IC50 after 48 hrs by hoechst 33258 staining-based fluorescent microscopic analysis; assay type: functional, cell-based
MCF7 [6] = assay: Induction of apoptosis in human MCF7 cells at antiproliferative IC50 assessed as late apoptotic cells after 48 hrs by AO/EB dual staining-based fluorescent microscopic analysis; assay type: functional, cell-based
MCF7 [7] = assay: Induction of apoptosis in human MCF7 cells assessed as fragmented nuclei at antiproliferative IC50 after 24 hrs by hoechst 33258 staining-based fluorescent microscopic analysis; assay type: functional, cell-based
MCF7 [8] = assay: Induction of apoptosis in human MCF7 cells assessed as morphological changes at antiproliferative IC50 by AO/EB dual staining-based fluorescent microscopic analysis; assay type: functional, cell-based; conditions: TDE = time-dependent effect
[9] = Downregulation of Bcl2 protein expression in human MCF7 cells at antiproliferative IC50 after 24 hrs by Western blot analysis; assay type: functional, cell-based
MCF7 [10] = assay: Induction of apoptosis in human MCF7 cells assessed as DNA fragmentation at antiproliferative IC50 after 24 hrs by ethidium bromide staining based agarose gel electrophoresis method; assay type: functional, cell-based
MCF7 [11] = assay: Induction of apoptosis in human MCF7 cells assessed as increase in number of abnormal cells at antiproliferative IC50 by hoechst 33258 staining-based fluorescent microscopic analysis; assay type: functional, cell-based; conditions: TDE = time-dependent effect
MCF7 [12] = assay: Induction of apoptosis in human MCF7 cells assessed as plasma membrane blebbing at antiproliferative IC50 after 48 hrs by hoechst 33258 staining-based fluorescent microscopic analysis; assay type: functional, cell-based
MCF7 [13] = assay: Induction of apoptosis in human MCF7 cells assessed as presence of apoptotic bodies at antiproliferative IC50 after 24 hrs by hoechst 33258 staining-based fluorescent microscopic analysis; assay type: functional, cell-based
[14] = Upregulation of Bax protein expression in human MCF7 cells at antiproliferative IC50 after 24 hrs by Western blot analysis; assay type: functional, cell-based
[15] = Hemolytic activity against human RBC at 31.2 uM after 4 hrs; assay type: ADME, cell-based; conditions: erythrocyte
MCF7 [16] = assay: Induction of apoptosis in human MCF7 cells assessed as early apoptotic cells at antiproliferative IC50 after 24 hrs by AO/EB dual staining-based fluorescent microscopic analysis; assay type: functional, cell-based
MCF7 [17] = assay: Induction of mitochondrial membrane potential loss in human MCF7 cells assessed as accumulation of cells at lower right quadrant at 14.3 uM after 48 hrs by JC-1 staining-based fluorescent microscopic analysis (reference value: 0.1 %); assay type: functional
[18] = Hemolytic activity against human RBC at 14.36 uM after 4 hrs; assay type: ADME, cell-based; conditions: erythrocyte
MCF7 [19] = assay: Induction of mitochondrial membrane potential depolarization in human MCF7 cells assessed as increase in green fluorescence at 14.3 uM after 24 to 48 hrs by JC-1 staining-based fluorescent microscopic analysis; assay type: functional, cell-based
[20] = Downregulation of Bcl2 mRNA expression in human MCF7 cells assessed as Bcl2 mRNA expression level at antiproliferative IC50 after 48 hrs by RT-qPCR analysis relative to control; assay type: functional, cell-based
MCF7 [21] = assay: Induction of mitochondrial membrane potential loss in human MCF7 cells assessed as accumulation of cells at upper right quadrant at 14.3 uM after 48 hrs by JC-1 staining-based fluorescent microscopic analysis (reference value: 0.2 %); assay type: functional
[22] = Downregulation of Bcl2 mRNA expression in human MCF7 cells assessed as Bcl2 mRNA expression level at antiproliferative IC50 after 12 hrs by RT-qPCR analysis relative to control; assay type: functional, cell-based
[23] = Downregulation of Bcl2 mRNA expression in human MCF7 cells assessed as Bcl2 mRNA expression level at antiproliferative IC50 after 24 hrs by RT-qPCR analysis relative to control; assay type: functional, cell-based
MCF7 [24] = assay: Induction of mitochondrial membrane potential loss in human MCF7 cells assessed as accumulation of cells at upper right quadrant at 26.2 uM after 48 hrs by JC-1 staining-based fluorescent microscopic analysis (reference value: 0.2 %); assay type: functional
MCF7 [25] = assay: Induction of mitochondrial membrane potential loss in human MCF7 cells assessed as accumulation of cells at lower right quadrant at 26.2 uM after 48 hrs by JC-1 staining-based fluorescent microscopic analysis (reference value: 0.1 %); assay type: functional
MCF7 [26] = assay: Induction of mitochondrial membrane potential depolarization in human MCF7 cells assessed as increase in green fluorescence at 26.2 uM after 24 to 48 hrs by JC-1 staining-based fluorescent microscopic analysis; assay type: functional, cell-based
[27] = Hemolytic activity against human RBC at 26.2 uM after 4 hrs; assay type: ADME, cell-based; conditions: erythrocyte
[28] = Hemolytic activity against human RBC at 28.7 uM after 4 hrs; assay type: ADME, cell-based; conditions: erythrocyte

CC1Oc2c(cc(C(=O)O)c3c2C=CC(C)(C)O3)C(=O)C1C (stereo unspecified)
IC50 [1]: 88.7 µM
IC50 [2]: 102 µM
IC50 [3]: 116 µM

CC1Oc2c(cc(C(=O)Nc3nnc(-c4ccc([N+](=O)[O-])cc4)s3)c3c2C=CC(C)(C)O3)C(=O)C1C (stereo unspecified)
IC50 [1]: 31.2 µM
Activity (MCF7 [4]): Active
Activity (MCF7 [5]): Active
Activity (MCF7 [6]): Active
Activity (MCF7 [7]): Active
Activity (MCF7 [8]): Tde
Activity [9]: Active
IC50 [2]: 42.9 µM
Activity (MCF7 [10]): Active
Activity (MCF7 [11]): Tde
Activity (MCF7 [12]): Active
Activity (MCF7 [13]): Active
Activity [14]: Active
Activity [15]: Non-Toxic
Activity (MCF7 [16]): Active
IC50 [3]: 42.3 µM

COc1cc2c(cc1OC)[C@@H]1C(=O)c3ccc4c(c3O[C@@H]1CO2)C=CC(C)(C)O4 [DEGUELIN]
IC50 [1]: 10.6 µM

CC1Oc2c(cc(C(=O)Nc3cccc4ccccc34)c3c2C=CC(C)(C)O3)C(=O)C1C (stereo unspecified)
IC50 [1]: 48.1 µM
IC50 [2]: 41.7 µM
IC50 [3]: 58.1 µM

CC1Oc2c(cc(C(=O)Nc3nccs3)c3c2C=CC(C)(C)O3)C(=O)C1C (stereo unspecified)
IC50 [1]: 75 µM
IC50 [2]: 84 µM
IC50 [3]: 64.4 µM

CC1Oc2c(cc(C(=O)Nc3nnc(-c4ccncc4)s3)c3c2C=CC(C)(C)O3)C(=O)C1C (stereo unspecified)
IC50 [1]: 57.9 µM
IC50 [2]: 74.3 µM
IC50 [3]: 75 µM

Cc1ccc(-c2nnc(NC(=O)c3cc4c(c5c3OC(C)(C)C=C5)OC(C)C(C)C4=O)s2)cc1 (stereo unspecified)
IC50 [1]: 14.3 µM
Activity (MCF7 [4]): Active
Activity (MCF7 [5]): Active
Activity (MCF7 [6]): Active
Activity (MCF7 [7]): Active
Activity (MCF7 [17]): 13.7%
Activity [18]: Non-Toxic
Activity (MCF7 [8]): Tde
Activity [9]: Active
IC50 [2]: 25.2 µM
Activity (MCF7 [10]): Active
Activity (MCF7 [19]): Active
Activity (MCF7 [11]): Tde
Activity [20]: 39.7%
Activity (MCF7 [12]): Active
Activity (MCF7 [13]): Active
Activity (MCF7 [21]): 86.3%
Activity [14]: Active
Activity [22]: 82.7%
Activity [23]: 46%
Activity (MCF7 [16]): Active
IC50 [3]: 20.2 µM

CC1Oc2c(cc(C(=O)Nc3ccncc3)c3c2C=CC(C)(C)O3)C(=O)C1C (stereo unspecified)
IC50 [1]: 26.2 µM
Activity (MCF7 [4]): Active
Activity (MCF7 [24]): 79.8%
Activity (MCF7 [5]): Active
Activity (MCF7 [6]): Active
Activity (MCF7 [7]): Active
Activity (MCF7 [8]): Tde
Activity [9]: Active
IC50 [2]: 28.6 µM
Activity (MCF7 [25]): 20.2%
Activity (MCF7 [10]): Active
Activity (MCF7 [11]): Tde
Activity (MCF7 [26]): Active
Activity [20]: 57%
Activity (MCF7 [12]): Active
Activity (MCF7 [13]): Active
Activity [14]: Active
Activity [22]: 92.2%
Activity [23]: 64%
Activity (MCF7 [16]): Active
Activity [27]: Non-Toxic
IC50 [3]: 39.3 µM

CC1Oc2c(cc(C(=O)Nc3cccnc3)c3c2C=CC(C)(C)O3)C(=O)C1C (stereo unspecified)
IC50 [1]: 28.7 µM
Activity (MCF7 [4]): Active
Activity (MCF7 [5]): Active
Activity (MCF7 [6]): Active
Activity (MCF7 [7]): Active
Activity (MCF7 [8]): Tde
Activity [9]: Active
IC50 [2]: 41.2 µM
Activity (MCF7 [10]): Active
Activity (MCF7 [11]): Tde
Activity (MCF7 [12]): Active
Activity (MCF7 [13]): Active
Activity [14]: Active
Activity [28]: Non-Toxic
Activity (MCF7 [16]): Active
IC50 [3]: 26.9 µM

c1ccc([C@H]2CN3CCSC3=N2)cc1 [LEVAMISOLE]
IC50 [1]: > 100 µM
IC50 [2]: 96 µM
IC50 [3]: > 100 µM

CC1Oc2c(cc(C(=O)Nc3nnc(-c4ccccc4)s3)c3c2C=CC(C)(C)O3)C(=O)C1C (stereo unspecified)
IC50 [1]: 37.8 µM
IC50 [2]: 40.2 µM
IC50 [3]: 32.4 µM

COc1cc(-c2nnc(NC(=O)c3cc4c(c5c3OC(C)(C)C=C5)OC(C)C(C)C4=O)s2)cc(OC)c1OC (stereo unspecified)
IC50 [1]: 70 µM
IC50 [2]: 97.8 µM
IC50 [3]: 79.3 µM

CC1Oc2c(cc(C(=O)Nc3nnc(-c4cccs4)s3)c3c2C=CC(C)(C)O3)C(=O)C1C (stereo unspecified)
IC50 [1]: 78.2 µM
IC50 [2]: 92.8 µM
IC50 [3]: 74.5 µM
